Data as given in patent US10618918B2, “Substituted boronic acids as antimicrobials” (priority 2015, dated 2020).
Like-named read-outs stand apart in the source and are kept apart here.

How the values were obtained:
[1] = system: KP1009 CTX-M-15; assay: Aztreonam potentiation (MPC@4), strain KP1009 CTX-M-15; settings: minimum BLI concentration inhibiting growth with aztreonam 4 μg/mL; tested up to 40 μg/mL
[2] = system: KP1086 OXA-48; assay: Biapenem potentiation (MPC@1), strain KP1086 OXA-48; type: cell-based; settings: minimum BLI concentration inhibiting growth with biapenem 1 μg/mL; tested up to 40 μg/mL
Experimental: (§1) Biapenem was present in the test medium at 1 μg/mL. […] Table 3 summarizes the BLI potency of biapenem potentiation (MPC@1) for two strains overexpressing class A (KPC) and class D (OXA-48) carbapenemases. Biapenem MIC for each strain is also shown.

[3] = system: ECL1002; assay: Aztreonam potentiation (MPC@4), strain ECL1002; settings: minimum BLI concentration inhibiting growth with aztreonam 4 μg/mL; tested up to 40 μg/mL
[4] = system: ec308 SHV-5; assay: Aztreonam potentiation (MPC@4), strain ec308 SHV-5; settings: minimum BLI concentration inhibiting growth with aztreonam 4 μg/mL; tested up to 40 μg/mL
[5] = system: KP1005 CTX-M-14; assay: Tigemonam potentiation (MPC@4), strain KP1005 CTX-M-14; settings: minimum BLI concentration inhibiting growth with tigemonam 4 μg/mL; tested up to 40 μg/mL
[6] = system: AB1053 OXA-72; assay: Meropenem potentiation (MPC@8), strain AB1053 OXA-72; type: cell-based, Acinetobacter baumannii; settings: minimum BLI concentration inhibiting growth with meropenem 8 μg/mL; tested up to 20 μg/mL
[7] = system: KP1010 SHV-12; assay: Aztreonam potentiation (MPC@4), strain KP1010 SHV-12; settings: minimum BLI concentration inhibiting growth with aztreonam 4 μg/mL; tested up to 40 μg/mL
[8] = system: EC1010 CMY-6; assay: Aztreonam potentiation (MPC@4), strain EC1010 CMY-6; settings: minimum BLI concentration inhibiting growth with aztreonam 4 μg/mL; tested up to 40 μg/mL
[9] = target: purified class A, C and D enzymes (β-lactamases) (Enterobacter cloacae, UniProt P05364); assay: biochemical; type: biochemical
[10] = target: T1, purified class A, C and D enzymes (β-lactamases) (Acinetobacter baumannii, UniProt Q9L4P2); assay: biochemical; type: biochemical; settings: purified OXA-23; nitrocefin (NCF) as reporter substrate
T1 construct: rows headed: Ki (OXA-23, NCF), uM; other: purified OXA-23; nitrocefin (NCF) as reporter substrate

[11] = target: T2, purified class A, C and D enzymes (β-lactamases) (Pseudomonas aeruginosa, UniProt P24735); assay: biochemical; type: biochemical
T2 construct: rows headed: Ki (Pa-AmpC, NCF), uM; other: purified Pa-AmpC; nitrocefin (NCF) as reporter substrate

[12] = target: purified class A, C and D enzymes (β-lactamases) (Klebsiella pneumoniae, UniProt Q6XEC0); assay: biochemical; type: biochemical; settings: purified OXA-48; nitrocefin (NCF) as reporter substrate
[13] = target: purified class A, C and D enzymes (β-lactamases) (Klebsiella pneumoniae, UniProt Q9F663); assay: biochemical; type: biochemical; settings: purified KPC-2; nitrocefin (NCF) as reporter substrate
[14] = target: purified class A, C and D enzymes (β-lactamases) (Escherichia coli, UniProt Q9L5C7); assay: biochemical; type: biochemical; settings: purified CTX-M-14; nitrocefin (NCF) as reporter substrate
[15] = system: AB1054 OXA-23; assay: Meropenem potentiation (MPC@8), strain AB1054 OXA-23; type: cell-based, Acinetobacter baumannii; settings: minimum BLI concentration inhibiting growth with meropenem 8 μg/mL; tested up to 20 μg/mL
[16] = system: ec302 TEM-10; assay: Aztreonam potentiation (MPC@4), strain ec302 TEM-10; settings: minimum BLI concentration inhibiting growth with aztreonam 4 μg/mL; tested up to 40 μg/mL
[17] = system: KP1004 KPC-2; assay: Biapenem potentiation (MPC@1), strain KP1004 KPC-2; type: cell-based; settings: minimum BLI concentration inhibiting growth with biapenem 1 μg/mL; tested up to 40 μg/mL
Experimental: as §1

[18] = system: KP1004 KPC-2; assay: Aztreonam potentiation (MPC@4), strain KP1004 KPC-2; settings: minimum BLI concentration inhibiting growth with aztreonam 4 μg/mL; tested up to 40 μg/mL

purified class A, C and D enzymes (β-lactamases) (Enterobacter cloacae, UniProt P05364), sequence (P05364 21-381): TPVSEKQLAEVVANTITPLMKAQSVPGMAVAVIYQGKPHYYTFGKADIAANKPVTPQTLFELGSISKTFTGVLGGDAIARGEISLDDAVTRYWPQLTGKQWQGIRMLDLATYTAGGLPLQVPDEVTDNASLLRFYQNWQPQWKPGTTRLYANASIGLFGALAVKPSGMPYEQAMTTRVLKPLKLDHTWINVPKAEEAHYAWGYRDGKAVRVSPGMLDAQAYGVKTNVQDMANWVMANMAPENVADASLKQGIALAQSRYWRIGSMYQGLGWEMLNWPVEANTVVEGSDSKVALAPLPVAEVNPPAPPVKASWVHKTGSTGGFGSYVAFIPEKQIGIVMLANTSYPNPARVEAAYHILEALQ
purified class A, C and D enzymes (β-lactamases) (Escherichia coli, UniProt Q9L5C7), sequence (Q9L5C7 entry or part of it): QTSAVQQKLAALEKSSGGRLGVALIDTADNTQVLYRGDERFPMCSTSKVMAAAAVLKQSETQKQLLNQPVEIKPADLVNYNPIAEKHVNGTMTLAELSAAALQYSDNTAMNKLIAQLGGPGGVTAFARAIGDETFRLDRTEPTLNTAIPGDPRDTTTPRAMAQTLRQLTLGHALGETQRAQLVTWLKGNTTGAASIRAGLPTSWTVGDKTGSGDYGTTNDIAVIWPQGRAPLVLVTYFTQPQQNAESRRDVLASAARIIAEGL
T1 sequence (Q9L4P2 whole entry): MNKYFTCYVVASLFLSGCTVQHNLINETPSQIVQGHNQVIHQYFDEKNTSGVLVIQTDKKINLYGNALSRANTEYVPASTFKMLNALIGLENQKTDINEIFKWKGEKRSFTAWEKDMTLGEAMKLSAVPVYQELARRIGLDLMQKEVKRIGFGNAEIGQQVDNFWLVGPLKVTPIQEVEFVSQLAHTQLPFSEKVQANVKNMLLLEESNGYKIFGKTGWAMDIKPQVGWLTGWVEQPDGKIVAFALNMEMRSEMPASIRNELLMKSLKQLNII
T2 sequence (P24735 whole entry): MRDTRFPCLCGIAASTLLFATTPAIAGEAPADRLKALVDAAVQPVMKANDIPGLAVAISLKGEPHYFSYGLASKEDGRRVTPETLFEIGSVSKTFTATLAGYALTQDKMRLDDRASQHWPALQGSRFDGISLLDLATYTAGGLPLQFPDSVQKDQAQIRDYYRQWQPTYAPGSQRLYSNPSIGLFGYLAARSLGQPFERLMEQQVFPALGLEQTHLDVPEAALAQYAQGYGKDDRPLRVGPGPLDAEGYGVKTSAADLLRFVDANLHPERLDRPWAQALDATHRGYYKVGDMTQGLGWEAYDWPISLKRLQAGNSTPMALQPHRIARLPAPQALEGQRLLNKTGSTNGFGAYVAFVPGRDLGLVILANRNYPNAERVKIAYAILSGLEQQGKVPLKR

SMILES	AZT MPC4 CTX-M-15 KP1009 [1]	BPM MPC1 OXA-48 KP1086 [2]	AZT MPC4 ECL1002 [3]	AZT MPC4 SHV-5 ec308 [4]	TIG MPC4 CTX-M-14 KP1005 [5]	MPM MPC8 AB1053 OXA-72 [6]	AZT MPC4 SHV-12 KP1010 [7]	AZT MPC4 CMY-6 EC1010 [8]	Ki (P99, NCF), uM [9]	Ki [10] [nM]	Ki [11] [nM]	Ki (OXA-48, NCF), uM [12]	Ki (KPC-2, NCF), uM [13]	Ki (CTX-M-14, NCF), uM [14]	MPM MPC8 AB1054 OXA-23 [15]	AZT MPC4 TEM-10 ec302 [16]	BPM MPC1 KP1004 KPC-2 [17]	AZT MPC4 KPC-2 KP1004 [18]	Ki (P99, NCF), uM ([9]; purified P99, nitrocefin (NCF) as reporter substrate)	Ki ([11]; purified Pa-AmpC, nitrocefin (NCF) as reporter substrate, read-out: Ki (Pa-AmpC, NCF)) [nM]
CON=Cc1ccc2c(c1C(=O)[O-])O[B-](O)(O)CC2.[Na+].[Na+] [Compound 55, Disodium; 4,4-dihydroxy-8-(methoxyiminomethyl)-5-oxa-4-boranuidabicyclo[4.4.0]deca-1(6),7,9-triene-7-carboxylate]	X (X = MPC@4 ≤ 5 μg/mL)	X (X = MPC@1 ≤ 5 μg/mL)	X (X = MPC@4 ≤ 5 μg/mL)	X (X = MPC@4 ≤ 5 μg/mL)	Z (Z = MPC@4 > 20 μg/mL)	Z (Z = MPC@1 > 20 μg/mL)	X (X = MPC@4 ≤ 5 μg/mL)	X (X = MPC@4 ≤ 5 μg/mL)	X (key: X = Ki ≤ 0.1 μM; Y = 0.1 μM < Ki ≤ 1 μM; Z = Ki > 1 μM)	< 100	< 100	X (X = Ki ≤ 0.1 μM)	X (X = Ki ≤ 0.1 μM)	X (X = Ki ≤ 0.1 μM)	Z (Z = MPC@1 > 20 μg/mL)	X (X = MPC@4 ≤ 5 μg/mL)	X (X = MPC@1 ≤ 5 μg/mL)	X (X = MPC@4 ≤ 5 μg/mL)		
CCOc1ccc2c(c1C(=O)[O-])O[B-](O)(O)CC2.[Na+].[Na+] [Compound 57, Disodium; 8-ethoxy-4,4-dihydroxy-5-oxa-4-boranuidabicyclo[4.4.0]deca-1(6),7,9-triene-7-carboxylate]	X (X = MPC@4 ≤ 5 μg/mL)	X (X = MPC@1 ≤ 5 μg/mL)	X (X = MPC@4 ≤ 5 μg/mL)	X (X = MPC@4 ≤ 5 μg/mL)	Y (Y = 5 μg/mL < MPC@4 ≤ 20 μg/mL)	X (X = MPC@1 ≤ 5 μg/mL)	X (X = MPC@4 ≤ 5 μg/mL)	X (X = MPC@4 ≤ 5 μg/mL)	X (key: X = Ki ≤ 0.1 μM; Y = 0.1 μM < Ki ≤ 1 μM; Z = Ki > 1 μM)	< 100	< 100	X (X = Ki ≤ 0.1 μM)	X (X = Ki ≤ 0.1 μM)	X (X = Ki ≤ 0.1 μM)	X (X = MPC@1 ≤ 5 μg/mL)	X (X = MPC@4 ≤ 5 μg/mL)	X (X = MPC@1 ≤ 5 μg/mL)	X (X = MPC@4 ≤ 5 μg/mL)		
O=C(O)c1c(F)ccc2c1OB(O)COC2 [Compound 58, 8-Fluoro-2-hydroxy-3,5-dihydro-1,4,2-benzodioxaborepine-9-carboxylic acid]	Z (Z = MPC@4 > 20 μg/mL)	X (X = MPC@1 ≤ 5 μg/mL)	X (X = MPC@4 ≤ 5 μg/mL)	Z (Z = MPC@4 > 20 μg/mL)	Z (Z = MPC@4 > 20 μg/mL)	Z (Z = MPC@1 > 20 μg/mL)	Y (Y = 5 μg/mL < MPC@4 ≤ 20 μg/mL)	X (X = MPC@4 ≤ 5 μg/mL)		100 to 1000		X (X = Ki ≤ 0.1 μM)	X (X = Ki ≤ 0.1 μM)	X (X = Ki ≤ 0.1 μM)	Z (Z = MPC@1 > 20 μg/mL)	Z (Z = MPC@4 > 20 μg/mL)	X (X = MPC@1 ≤ 5 μg/mL)	X (X = MPC@4 ≤ 5 μg/mL)	X (X = Ki ≤ 0.1 μM)	< 100
O=C([O-])c1cncc2c1O[B-](O)(O)CC2.[Na+].[Na+] [Compound 59, Disodium; 4,4-dihydroxy-5-oxa-9-aza-4-boranuidabicyclo[4.4.0]deca-1(6),7,9-triene-7-carboxylate]	Y (Y = 5 μg/mL < MPC@4 ≤ 20 μg/mL)	X (X = MPC@1 ≤ 5 μg/mL)	Z (Z = MPC@4 > 20 μg/mL)	Y (Y = 5 μg/mL < MPC@4 ≤ 20 μg/mL)	Z (Z = MPC@4 > 20 μg/mL)	Y (Y = 5 μg/mL < MPC@1 ≤ 20 μg/mL)	X (X = MPC@4 ≤ 5 μg/mL)	Y (Y = 5 μg/mL < MPC@4 ≤ 20 μg/mL)	Z (key: X = Ki ≤ 0.1 μM; Y = 0.1 μM < Ki ≤ 1 μM; Z = Ki > 1 μM)	> 1000	100 to 1000	X (X = Ki ≤ 0.1 μM)	X (X = Ki ≤ 0.1 μM)	X (X = Ki ≤ 0.1 μM)	Z (Z = MPC@1 > 20 μg/mL)	X (X = MPC@4 ≤ 5 μg/mL)	X (X = MPC@1 ≤ 5 μg/mL)	X (X = MPC@4 ≤ 5 μg/mL)		
[2H]C1([2H])Cc2ccc(OC)c(C(=O)[O-])c2O[B-]1(O)O.[Na+].[Na+] [Compound 60, Disodium; 3,3-dideuterio-4,4-dihydroxy-8-methoxy-5-oxa-4-boranuidabicyclo[4.4.0]deca-1(10),6,8-triene-7-carboxylate]	X (X = MPC@4 ≤ 5 μg/mL)	X (X = MPC@1 ≤ 5 μg/mL)	X (X = MPC@4 ≤ 5 μg/mL)	X (X = MPC@4 ≤ 5 μg/mL)	X (X = MPC@4 ≤ 5 μg/mL)	X (X = MPC@1 ≤ 5 μg/mL)	X (X = MPC@4 ≤ 5 μg/mL)	X (X = MPC@4 ≤ 5 μg/mL)	X (key: X = Ki ≤ 0.1 μM; Y = 0.1 μM < Ki ≤ 1 μM; Z = Ki > 1 μM)	< 100	< 100	X (X = Ki ≤ 0.1 μM)	X (X = Ki ≤ 0.1 μM)	X (X = Ki ≤ 0.1 μM)	X (X = MPC@1 ≤ 5 μg/mL)	X (X = MPC@4 ≤ 5 μg/mL)	X (X = MPC@1 ≤ 5 μg/mL)	X (X = MPC@4 ≤ 5 μg/mL)		
O=C([O-])c1c(OCC#CCN2CCC2)ccc2c1O[B-](O)(O)CC2.[Na+].[Na+] [Compound 62, Disodium; 8-[4-(azetidin-1-yl)but-2-ynoxy]-4,4-dihydroxy-5-oxa-4-boranuidabicyclo[4.4.0]deca-1(6),7,9-triene-7-carboxylate]	X (X = MPC@4 ≤ 5 μg/mL)	X (X = MPC@1 ≤ 5 μg/mL)	X (X = MPC@4 ≤ 5 μg/mL)	X (X = MPC@4 ≤ 5 μg/mL)	Y (Y = 5 μg/mL < MPC@4 ≤ 20 μg/mL)	X (X = MPC@1 ≤ 5 μg/mL)	X (X = MPC@4 ≤ 5 μg/mL)	X (X = MPC@4 ≤ 5 μg/mL)	X (key: X = Ki ≤ 0.1 μM; Y = 0.1 μM < Ki ≤ 1 μM; Z = Ki > 1 μM)	< 100	< 100	X (X = Ki ≤ 0.1 μM)	X (X = Ki ≤ 0.1 μM)	X (X = Ki ≤ 0.1 μM)	X (X = MPC@1 ≤ 5 μg/mL)	X (X = MPC@4 ≤ 5 μg/mL)	X (X = MPC@1 ≤ 5 μg/mL)	X (X = MPC@4 ≤ 5 μg/mL)		
